≈ marks a conversion by molar mass, not a printed value. Where “and” joins values, the source holds several entries; their conditions need not be identical. Equal values may be shown once. Starred links: 1 amine or outer side, 2 acyl side, 3 side chain; linkers in the order of their positions; H or OH if unused. Positions of bridges follow the written chain, without caps; N, C: chain ends. Non-standard residues stand in square brackets, D forms with d. Residues, ends and D or L forms follow the SMILES beside them. *: point of attachment. hTyr(3S-OH,4S-OH,3'-OSO3H) = N[C@H](C(=O)O)[C@H](O)[C@@H](O)c1ccc(O)c(OS(=O)(=O)O)c1; Orn(4R-OH,5R-OH) = O=C([C@H](C[C@@H](O)[C@@H](O)N[*:3])N[*:1])[*:2]; Pro(3S-OH,4S-Me) = C[C@H]1CN[C@H](C(=O)O)[C@H]1O; X1 = CCCCCOc1ccc(-c2cc(-c3ccc(C(=O)*)cc3)no2)cc1; Gln(3R-OH) = NC(=O)C[C@@H](O)[C@H](N)C(=O)O; Hyp = O=C(O)[C@@H]1C[C@@H](O)CN1
How the values were obtained:
[1] = format: physicochemical; details: for reduction in viscosity: 6% additive in ILCS gel, 140° F. 1-3 days then 108° F. 2-4 days; for Viscosity: 6% of the named additive added to 8% ILCS (potassium) hydro-gel
Experimental: A simple viscometer, Digital Viscosity Meter (NDJ-8S, Shaoxing Worner Lab Equipment Co., Ltd., China) was used, recognizing the limitations of measuring a solid gelatin hydro-gel. […] The ILCS was initially incubated at 120° F. overnight, equilibrated at […]. prior to viscometry.
ILCS was made from potassium hydroxide (Spectrum Chemical, Louisville, KY), isomerized linoleic acid (Stepan, New Jersey), and USP WFI water (Ceela Naturals), to a final concentration 8% or 333 mM Potassium Linoleate (isomerized).
Many of the amino acids tested were purchased from Ajinomoto (NJ, USA), while tryptophan, proline, and phenylalanine were obtained from Purebulk (Oregon, USA). The Quorum Sensing Agent phenylethanol was purchased from Sigma Aldrich (GA, USA).
The gel and compound were incubated at 140° F. for 1-3 days followed by incubation 108° F. for 2-4 days.

[2] = test system: Candida auris, (AR-0381); details: isolate AR Isolate Bank #0381; cited from earlier work
[3] = test system: SARS-COV-2; assay: Virucidal assay, 2 minutes contact, end-point titer (CCID50) on Vero 76 cells; details: Ethanol 63%, 2 minutes
[4] = test system: Vero 76 cells
[5] = test system: microbial growth; assay: Reduction in microbial growth; format: cell-based; details: potassium hexadiene at pH 9
[6] = test system: Candida albicans (ATCC 10231); assay: EPA protocol MB-35-00 hard surface carrier disinfection test
Experimental: (§1) We used EPA protocol MB-35-00 for testing disinfectants against C. auris (US Environmental Protection Agency. 2017, 2020) and C. albicans ATCC 10231, a yeast common in package spoilage of food and cosmetics.
(§2) We tested 5 batches produced with difference sources of isomerized linoleic acid (Test Substances 1-5).
(§3) The EPA test protocol for testing hard surface disinfection of C. auris (AR0381) with antifungal resistance includes an overnight culture of C. auris (AR.0381) shaken at 200 rpm at 30° C. From this culture, 8 mL was harvested by centrifugation, re-suspended in 2-3 mL phosphate-buffered saline (PBS), and mixed with a 3-part soil load including bovine serum albumin (BSA), yeast extract, and mucin. Metal carriers (10 mm) were inoculated (10 μL culture+soil load) and dried in a desiccator under vacuum (˜70 min). The disk surface was coated with the test substance at 0.42 M (50 μL) for up to 10 min. Following incubation, the carriers were transferred to 10 mL neutralization solution (Sabouraud Dextrose Broth [SDB], a common yeast-mold growth media) for subsequent harvesting on membrane filters. The filtered membranes were transferred to Sabouraud Dextrose Emmons Agar (SDEA) plates to culture for 120 hours at 31° C. Controls consisted of PBS (50 μL) applied to inoculated metal disk carriers, subsequently transferred to 10 mL neutralization solution (SDB), diluted serially in PBS, and plated directly to SDEA plates, See FIG. 2.
(§4) We prepared and qualified these per EPA protocol (US Environmental Protection Agency, 2017). • Soil Stocks: We prepared soil stocks with yeast extract powder (Ref RM027) purchased from Himedia, BSA (A2153) purchased from Sigma Life Science, and gastric mucin (cat #HY-B2196/CS-7626) purchased from Mod Chem Express per SOP MB-35-00 (US Environmental Protection Agency, 2017). • Cell Harvesting: We removed cells from the growth culture media using a Micro-Centrifuge obtained from Changzhou Jintan Sanhe Instrument Co., LTD. (Model TGI6-W) at 10,000×g for 10 min in screw-top-cap vials purchased from Heathrow Scientific (Item HS 100600). The optical density of the inoculate was defined at 15-19 OD600 in PBS with the Ultrospec 10 Cell Density Meter from BioChrom (Holliston, MA, USA) prior to dilution in the soil load. Samples were diluted 1:10 in PBS to obtain absorbance readings between 1.5 and 1.9. • Membrane Filtration: Treated yeasts were collected using a combination of the Rocker (Cat #200300-01) and 47 mm PES membranes with a 0.45 micron pore size obtained from Sterlitech (Catalog #PE54547100).

[7] = test system: Candida auris (AR-0381)
Experimental: as §1, §2, §3, §4

[8] = second experiment, Tables 8 and 9
[9] = second experiment, positive control, Table 5
[10] = all testing runs (Tables 2 and 3)

N[C@@H](Cc1ccccc1)C(=O)O [Phenylalanine]
reduction in viscosity [1]: two log-reduction in viscosity
Viscosity [1]: 130 milliPoise

N=C(N)NCCC[C@H](N)C(=O)O [Arginine]
Viscosity [1]: 25600 milliPoise

C[C@@H]1[C@H](O)[C@@H](C)/C=C/C=C/C=C/C=C/C=C/C=C/C=C/[C@H](O[C@@H]2O[C@H](C)[C@@H](O)[C@H](N)[C@@H]2O)C[C@@H]2O[C@](O)(C[C@@H](O)C[C@@H](O)[C@H](O)CC[C@@H](O)C[C@@H](O)CC(=O)O[C@H]1C)C[C@H](O)[C@H]2C(=O)O [Amphotericin 81]
MIC [2]: 0.38 µg/mL (≈ 0.411 µM)

CC[C@@H]([C@H](C)O)n1ncn(-c2ccc(N3CCN(c4ccc(OC[C@@H]5CO[C@@](Cn6cncn6)(c6ccc(F)cc6F)C5)cc4)CC3)cc2)c1=O [Posaconazolc, posaconazole]
MIC [2]: 0.06 µg/mL (≈ 0.0856 µM)

CC(C)[C@H](N)C(=O)O [Valine]
Viscosity [1]: 31850 milliPoise

CC(C)(CO)[C@@H](O)C(=O)NCCCO [D Panthenol]
Viscosity [1]: 31600 milliPoise

CSCC[C@H](N)C(=O)O [Methionine]
Viscosity [1]: 32350 milliPoise

C[C@@H](O)[C@H](N)C(=O)O [Threonine]
Viscosity [1]: 30650 milliPoise

Anidulaftrngin
MIC [2]: 0.25 µg/mL

Cl.NCCCC[C@H](N)C(=O)O [Lysine-hcl]
Viscosity [1]: 30700 milliPoise

Nc1[nH]c(=O)ncc1F [Flucytosine]
MIC [2]: 2.00 µg/mL (≈ 15.5 µM)

NCCCC[C@H](N)C(=O)O [Lysine base]
Viscosity [1]: 26900 milliPoise

N[C@@H](CO)C(=O)O [Serine]
Viscosity [1]: 22300 milliPoise

C[C@@H](c1ncncc1F)[C@](O)(Cn1cncn1)c1ccc(F)cc1F [Voriconazole]
MIC [2]: 0.03 µg/mL (≈ 0.0859 µM)

CCO [Ethanol, reference compound]
LRV (log reduction value) ([3]; Table 7): >1.8
Virus Titer ([3]; Table 7): <1.7 Log10 CCID50of virus per 0.1 mL
LRV (log reduction value) ([3]; positive control, Table 4): >1.8
Virus Titer ([3]; positive control, Table 4): <1.7 Log10 CCID50 of virus per 0.1 mL
LRV (log reduction value) [3, 8]: >2.0
Virus Titer [3, 8]: <1.7 Log10 CCID50of virus per 0.1 mL
LRV (log reduction value) [3, 9]: >2.0
Virus Titer [3, 9]: <1.7 Log10 CCID50 of virus per 0.1 mL
toxicity to cells in titer plates [4]: toxic to cells

CC[C@H](C)C[C@H](C)CCCCCCCCC(=O)N[C@H]1C[C@@H](O)[C@@H](NCCN)NC(=O)[C@@H]2[C@@H](O)CCN2C(=O)[C@H]([C@H](O)CCN)NC(=O)[C@H]([C@H](O)[C@@H](O)c2ccc(O)cc2)NC(=O)[C@@H]2C[C@@H](O)CN2C(=O)[C@H]([C@@H](C)O)NC1=O [Caspofungin]
MIC [2]: 0.13 µg/mL (≈ 0.119 µM)

N[C@@H](Cc1c[nH]cn1)C(=O)O [Histidine base]
Viscosity [1]: 28050 milliPoise

OC(Cn1cncn1)(Cn1cncn1)c1ccc(F)cc1F [Fluconazolc, fluconazole]
MIC [2]: 4.00 µg/mL (≈ 13.1 µM)

N[C@@H](Cc1c[nH]c2ccccc12)C(=O)O [Tryptophan]
reduction in viscosity [1]: two log-reduction in viscosity
Viscosity [1]: 21 milliPoise

C/C=C/C=C/C(=O)[O-].[K+] [Potassium Sorbate, Potassium sorbate]
reduction in microbial growth [5]: little reduction in microbial growth
Test Disks Density (log) ([6]; Exposure 1 min., yeast recovered from treated carriers): 4.8 log and 4.9 log
kill rates [6, 10]: less than one log
Test Disks Density (log) ([7]; Exposure 2 min., yeast recovered from treated carriers): 5.0 log and 4.9 log
kill rates [7, 10]: less than one log

CC[C@H](C)[C@H](N)C(=O)O [Iso-Leucine]
Viscosity [1]: 29900 milliPoise

CC(C)(CO)C(O)C(=O)NCCCO (stereo not drawn) [D L Panthenol]
Viscosity [1]: 28650 milliPoise

C[C@H](N)C(=O)O [Alanine]
Viscosity [1]: 40700 milliPoise

CCC(C)n1ncn(-c2ccc(N3CCN(c4ccc(OCC5COC(Cn6cncn6)(c6ccc(Cl)cc6Cl)O5)cc4)CC3)cc2)c1=O (stereo not drawn) [Iuaconazole, itraconazole]
MIC [2]: 0.13 µg/mL (≈ 0.184 µM)

NC(=O)c1cccnc1 [Niacinamide]
Viscosity [1]: 33800 milliPoise

CCCCCOc1ccc(-c2cc(-c3ccc(C(=O)N[C@H]4C[C@@H](O)[C@@H](O)NC(=O)[C@@H]5[C@@H](O)[C@@H](C)CN5C(=O)[C@H]([C@H](O)CC(N)=O)NC(=O)[C@H]([C@H](O)[C@@H](O)c5ccc(O)c(OS(=O)(=O)O)c5)NC(=O)[C@@H]5C[C@@H](O)CN5C(=O)[C@H]([C@@H](C)O)NC4=O)cc3)no2)cc1 [Micafungin] (X1-[Orn(4R-OH,5R-OH)]T[Hyp][hTyr(3S-OH,4S-OH,3'-OSO3H)][Gln(3R-OH)][Pro(3S-OH,4S-Me)]; lactam 1-C)
MIC [2]: 0.13 µg/mL (≈ 0.102 µM)

Cl.N[C@@H](CS)C(=O)O [Cysteine-HCl]
Viscosity [1]: 28400 milliPoise

N[C@@H](CC(=O)O)C(=O)O [Aspartic acid]
Viscosity [1]: 25100 milliPoise

From patent publication US12611380B2, “Solution and method for reducing the virulence of viruses, bacteria, yeasts, or fungus” (priority 2020, dated 2026)
